Tests used:
[1] = system: oxotremorine-induced tremor; assay: Oxotremorine-induced tremor; assay type: in vivo; details: rating scale
Experimental: A typical animal model for drug-induced tremors is the oxotremorine-induced tremor (e.g. H. Hallberg and O. Almgren, Acta Physiol. Scand., 1987; 129: 407-13; J. G. Clement and W. R. Dyck, J. Pharmacol. Meth., 1989; 22: 25-36). Oxotremorine induces tremor which is measured by a rating scale. (R)-(−)-2-[5-(4-fluoro-phenyl)-3-pyridyl-methyl-amino-methyl]-chromane or one of its pharmaceutically acceptable salt inhibited oxotremorine-induced tremors.

[2] = system: Parkinsonian cynomolgus monkey; assay: MPTP Parkinsonian cynomolgus monkey chronically treated with I-dopa (adverse effects of anti-Parkinsonian drugs); assay type: in vivo; details: MPTP monkeys, long-term I-dopa
Experimental: Treatment of adverse effects of conventional anti-Parkinsonian drugs as defined above are determined in a modification of the animal model of the Parkinsonian cynomolgus monkey according to P. J. Blanchet et al., Exp. Neurology 1998; 153: 214-222. Monkeys render parkinsonian by repeated injections of 1-methyl-4-phenyl-1,2,3,6-tetrahydropyridine (MPTP). The Parkinsonian monkeys are chronically treated with the standard I-dopa therapy according to P. J. Blanchet et al., Mov. Disord., 1998; 13: 798-802. Longterm treatment with I-dopa induces extrapyramidal motor side effects and psychotic states which are both qualitatively and quantitatively, assessed by the Abnormal Involuntary Movement Scale (P. J. Blanchet et al., Mov. Disord. 1998; 13: 798-802) for different body parts (face, neck, trunk, each limb) and by rating for psychotic states by observing the monkey's attention, reactivity and mobility.

[3] = system: posthypoxic myoclonus, rats; assay: Posthypoxic myoclonus in rats; assay type: in vivo, rat; details: after cardiac arrest for 8 minutes
Experimental: A typical animal model for myoclonus is myoclonus induced by an acute hypoxic episode according to D. D. Truong et al., Mov. Disord., 1994; 9: 201-206). In this model of posthypoxic myoclonus, rats undergo a cardiac arrest for 8 minutes and are resuscitated thereafter. Myoclonic jerks occur spontaneously but can be provoked by auditory stimulation, too, worsening over the days following cardiac arrest.

[4] = system: Campus Syndrome in the Pietrain pig; assay: Campus Syndrome in the Pietrain pig (tremor); assay type: in vivo; details: accelerometric recording
Source text: (§1) Typical genetic models in mutant animals are the Campus Syndrome in the Pietrain pig according to A. Richter et al. (Exp. Neurology, 1995; 134: 205-213) or the Weaver mutant mouse according to J. R. Simon and B. Ghetti (Mol. Neurobiol., 1994; 9: 183-189). In the Campus Syndrome model, these mutant pigs show a high-frequency tremor when standing and during locomotion, but not while lying at rest. Assessment of tremor is made by accelerometric recording. In the Weaver mutant mouse, degenerative cerebellar atrophy is fould in association with tremor, gait instability, and toppling over the sides after a few steps.

[5] = system: reserpinized rat or mouse; assay: Reserpinized rat or mouse (akinesia); assay type: in vivo; details: 24 h after reserpine
Experimental: A typical animal model is the reserpinized rat or mouse (e.g. […]. Neural Transm.-Park. Dis. Dement. Sect., 1994; 7: 133-142; M. Gossel et al., J. Neural Transm.-Park. Dis. Dement. Sect., 1995; 10: 27-39; N. R. Hughes et al., Mov. Disord., 1998; 13: 228-233). Reserpine is a potent depleter of monoamines and produces nearly complete akinesia in both species. Prominent 24 h after application, the distance traveled and the time active is nearly zero as measured in conventional activity meters.

5-HT1A receptor [6] = target: T1, 5-HT1A receptor (Homo sapiens, UniProt P08908); assay: biochemical
T1 sequence (P08908 whole entry): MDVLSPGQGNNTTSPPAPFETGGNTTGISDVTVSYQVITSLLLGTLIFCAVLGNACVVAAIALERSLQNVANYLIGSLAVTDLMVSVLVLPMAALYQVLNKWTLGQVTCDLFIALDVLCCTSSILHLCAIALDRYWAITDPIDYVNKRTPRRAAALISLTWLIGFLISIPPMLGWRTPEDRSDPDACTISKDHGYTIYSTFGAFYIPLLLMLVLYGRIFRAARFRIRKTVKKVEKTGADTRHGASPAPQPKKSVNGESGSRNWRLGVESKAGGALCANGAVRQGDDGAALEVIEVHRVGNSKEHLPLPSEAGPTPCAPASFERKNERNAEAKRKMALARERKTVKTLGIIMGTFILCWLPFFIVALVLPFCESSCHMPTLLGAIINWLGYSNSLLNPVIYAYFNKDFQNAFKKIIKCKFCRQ

[7] = system: Parkinsonian cynomolgus monkey; assay: MPTP Parkinsonian cynomolgus monkey, Laval University Disability Scale; assay type: in vivo; details: MPTP monkeys
Source text: A typical animal model for idiopathic Parkinson's disease is the Parkinsonian cynomolgus monkey according to P. J. Blanchet et al., Exp. Neurology 1998; 153: 214-222. Monkeys render parkinsonian by repeated injections of 1-methyl-4-phenyl-1,2,3,6-tetrahydropyridine (MPTP). Parkinsonian symptoms are qualitatively assessed by the use of the Laval University Disability Scale (B. Gomez-Mancilla et al., 1993; Mov. Disord. 8: 144-150) measuring the following symptoms: posture, mobility, climbing, gait, holding food, vocalizing, grooming, social interaction.

Weaver mutant mouse = Weaver mutant mouse (locomotor activity); assay type: in vivo; details: activity cages
Source text: as §1

[8] = system: systemic 3-nitropropionic acid (3-NP) model in rats; assay: Systemic 3-nitropropionic acid (3-NP) model in rats, nocturnal activity; assay type: in vivo, rat
Source text: A typical animal model is the systemic 3-nitropropionic acid (3-NP) model in rats according to C.
After two injections of 3-NP, rats display nocturnal hyperactivity reflecting symptoms of early Huntington's disease, whereas rats treated with four injections of 3-NP display nocturnal akinesia (hypoactivity) reflecting symptoms of late Huntington's disease. Nocturnal activity is automatically measured in conventional activity cages by infrared beams.

5-HT1A receptor [9] = target: T1, 5-HT1A receptor; details: in contrast to buspirone
dopamine D3 receptor = dopamine D3 receptor (Homo sapiens, UniProt P35462)
dopamine D3 receptor, sequence (P35462 whole entry, species assumed): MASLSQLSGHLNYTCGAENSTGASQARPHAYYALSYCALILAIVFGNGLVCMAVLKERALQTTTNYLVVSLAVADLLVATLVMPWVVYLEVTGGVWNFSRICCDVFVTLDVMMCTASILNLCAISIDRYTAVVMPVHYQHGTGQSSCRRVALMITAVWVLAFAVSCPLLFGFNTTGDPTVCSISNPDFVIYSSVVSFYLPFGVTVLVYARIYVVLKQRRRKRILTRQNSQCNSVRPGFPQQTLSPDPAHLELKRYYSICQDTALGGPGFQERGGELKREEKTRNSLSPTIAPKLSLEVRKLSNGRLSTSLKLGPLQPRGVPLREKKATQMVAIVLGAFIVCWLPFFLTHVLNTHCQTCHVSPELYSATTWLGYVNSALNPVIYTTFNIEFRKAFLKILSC

[10] = system: catalepsy induced by conventional antidopaminergic drugs such as haloperidol; assay: Catalepsy induced by conventional antidopaminergic drugs such as haloperidol; assay type: in vivo; details: same dose-range as effective in the animal models
Experimental: (§2) Extrapyramidal motor side effects in e.g. rodents are measured by the ability of a drug to induce catalepsy. Catalepsy is defined as a state where an animal continues to remain in an unnormal (nonphysiological 'uncomfortable') posture for a long time ([…] and S. D. Glick, Neuropharmacology, 1996; 15: 393-394; […] P. Janssen, Life Sci., 1979, […]). For example, if a hindpaw of a rat is placed on an elevated level, e.g. a platform elevated 3 cm above ground level, a normal rat immediately withdraws the hindpaw from the platform to the ground level. A cataleptic rat remains in this unnatural posture even for minutes.

[11] = system: striatonigral degeneration approach in the rat; assay: Striatonigral degeneration in the rat (6-hydroxydopamine plus quinolinic acid), turning behavior; assay type: in vivo; details: automated recorder
Source text: Another more recent animal model is the striatonigral degeneration approach in the rat according to […] et al., J. Neural Transm. Suppl., 1999; 55: 103-113. Rats receive an unilateral injection of 6-hydroxydopamine into the left medial forebrain bundle followed by an injection of quinolinic acid into the ipsilateral striatum inducing nigrostriatal degeneration. The degeneration results in turning behavior to a challenge with dopaminomimetics such as apomorphine or amphetamine. Turning behavior is measured by an automated recorder.

mutant dystonic hamster = assay: Mutant dystonic hamster; assay type: in vivo; details: scoring system
Source text: A typical animal model is the mutant dystonic hamster according to A. Richter and W. Löscher, Prog. Neurobiol. 1998; 54: 633-677. In this genetically dystonic hamsters, dystonic attacks are provoked by taking the animal from the home cage and placing it on a balance. The dystonic syndrome consists of a sequence of abnormal movements, and the severity of the single symptoms is rated by a scoring system.

rats = assay: Catalepsy induction in rats (extrapyramidal motor side effects); assay type: in vivo, rat; details: doses up to 500 fold higher compared to the doses effective in the animal models
Experimental: as §2

[12] = system: neuroleptics sensitized monkey; assay: Neuroleptics sensitized monkey, haloperidol challenge; assay type: in vivo; details: given after haloperidol challenge; scoring system
Source text: Another typical animal model is the neuroleptics sensitized monkey according to D. E. Casey, Psychopharmacology, 1996; 124: 134-140. Monkeys treated repeatedly with conventional neuroleptics are highly sensitive to a subsequent challenge dose of neuroleptic drugs. When challenged, the monkeys immediately show extrapyramidal motor side effects such as dystonia, dyskinesias, akathisia, and bradykinesia which are rated by a scoring system. The conventional neuroleptic drug haloperidol is given as a challenge.

D2 = D2 (Homo sapiens, UniProt P14416); assay: D2 antagonism; details: under increased doses
D2, sequence (P14416 whole entry): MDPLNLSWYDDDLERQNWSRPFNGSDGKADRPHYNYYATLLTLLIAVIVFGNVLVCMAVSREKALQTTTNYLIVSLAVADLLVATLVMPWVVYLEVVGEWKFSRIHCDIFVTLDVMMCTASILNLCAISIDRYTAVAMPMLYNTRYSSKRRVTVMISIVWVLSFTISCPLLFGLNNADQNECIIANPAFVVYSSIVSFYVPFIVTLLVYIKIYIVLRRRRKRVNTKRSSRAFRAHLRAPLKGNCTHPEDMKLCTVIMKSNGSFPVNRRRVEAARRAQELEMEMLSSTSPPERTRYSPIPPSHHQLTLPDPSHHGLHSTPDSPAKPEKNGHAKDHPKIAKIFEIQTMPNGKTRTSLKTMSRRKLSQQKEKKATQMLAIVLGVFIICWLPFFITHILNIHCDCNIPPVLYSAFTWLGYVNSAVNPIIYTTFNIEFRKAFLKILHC

[13] = system: neuroleptics-induced muscle rigidity in rats; assay: Neuroleptics-induced muscle rigidity in rats; assay type: in vivo, rat; details: resistance to passive flexion and extension of the hind limb
Source text: A typical animal model is neuroleptics-induced muscle rigidity in rats according to S. Wolfarth et al., Arch. Pharmacol. 1992; 345: 209-212. Rats are challenged with the conventional neuroleptic drug haloperidol which enhances muscle tone. Muscle tone is electromechanically measured as the resistance to passive flexion and extension of the hind limb.

[14] = Abnormal Involuntary Movement Scale

In the case of `Fc1ccc(-c2cncc(CNC[C@H]3CCc4ccccc4O3)c2)cc1` [(R)-(−)-2-[5-(4-fluorophenyl)-3-pyridylmethylaminomethyl]-chromane], the oxotremorine-induced tremors [1] is reported as “inhibited”, the dystonic dyskinesias [2, 14] is reported as “reduced” and the overall choreiform dyskinesias [2, 14] is reported as “reduced”. The psychotic states ([2]; rating of attention, reactivity and mobility) was “reduced”, the “number of auditory-evoked myoclonic jerks” value [3] was “dose-dependently reduced” and the “number of spontaneous myoclonic jerks” value [3] was “dose-dependently reduced”. For the same molecule, the “tremor when standing and during locomotion” value [4] was “reduced disabling tremor”, the akinesia [5] was “dose-dependently reduced” and the “distance traveled and time active” value ([5]; activity meters) was “restored distance traveled and time active to about the level of normal animals”. For the same molecule, the IC50 (5-HT1A receptor [6]) was 1 nM, the “parkinsonian symptoms (Laval University Disability Scale)” value [7] was “reduced all the parkinsonian symptoms” and the total activity [7] was “increased”. The locomotor activity (Weaver mutant mouse) was “enhanced”, the “nocturnal akinesia (hypoactivity)” value ([8]; after four injections of 3-NP (late Huntington's disease)) was “reduced” and the nocturnal hyperactivity ([8]; after two injections of 3-NP (early Huntington's disease)) was “reduced”. For the same molecule, the “potency as agonist at the 5-HT1A receptor relative to buspirone” value (5-HT1A receptor [9]) was 30 fold, the “affinity to the dopamine D3 receptor” value (dopamine D3 receptor) was “high affinity” and the “prevention of catalepsy induced by conventional antidopaminergic drugs” value [10] was “able to prevent catalepsy”. The “reversal of already existing catalepsy induced by conventional antidopaminergic drugs such as haloperidol” value [10] was “reverses already existing catalepsy”, the “turning behavior induced by amphetamine” value [11] was “dose-dependently antagonized” and the “turning behavior induced by apomorphine” value [11] was “dose-dependently antagonized”. The “severity of dystonic symptoms” value (mutant dystonic hamster) was “dose-dependently reduced”, the induction of catalepsy (rats) was “does not induce any catalepsy” and the “extrapyramidal motor side effects (dystonia, dyskinesias, akathisia, bradykinesia)” value [12] was “dose-dependently reduced”. The D2 antagonism (D2) was “exhibit a D2 antagonism under increased doses” and the “muscle tone enhanced by haloperidol” value [13] was “decreased”.

Source: patent publication US7928128B2, “Use of(R)-(−) -2-[5-(4-fluorophenyl)-3-pyridylmethylaminomethyl]-chromane and its physiologically acceptable salts” (Merck Patent Gesellschaft mit beschrankter Haftung, priority 2000, dated 2011)
